Test [1] addresses TNFα and streptavidin immobilized FOL2R (Homo sapiens (Human), UniProt P01375+P14207). As to the kind of experiment: Ternary complex SPR assay. The test is classed as binding. Conditions: 10 nM compound, max response normalized to expected response; for TC 150 nM- tagless TNF Normalized: 150 nM untagged TNF; for TC 300 nM- tagless TNF Normalized: 300 nM untagged TNF. As to the method: Folate receptor-TNFα ternary complex SPR assays were conducted on a Biacore 8K instrument (Cytiva) using biotinylated folate receptor beta (Acro Biosystems). Folate receptor was immobilized at -1800 RU on a streptavidin chip (Cytiva) in 10 mM HEPES pH 7.5, 150 mM NaCl, 0.05% Tween 20. Untagged TNF was preincubated with 10 nM compound for 6 hr in 10 mM HEPES pH 7.5, 150 mM NaCl, 0.05 Tween 20, 2% DMSO at 25° C. Samples were then injected over the folate receptor surface at 30 μl/min with an association time of 110 s and a dissociation time of 600 s. Surfaces were regenerated with 4 M MgCl2 at 30 μl/mm for 30 s. The maximum measured response was normalized by comparison to the maximum expected response for each compound.
On the technique in general: Surface plasmon resonance follows binding to a sensor surface in real time, without labels.

Test [2] concerns the target T1, folate receptor beta (Homo sapiens (Human), UniProt P14207). Kind of test: Folate receptor SPR assay (biotinylated folate receptor beta on streptavidin chip). The test is classed as binding. The note with it: for Rmax: biotinylated folate receptor beta on streptavidin chip; for kd / Kd / kon: multi-cycle kinetics, 25° C., 1:1 model; for Kd: read-out: FOLR2Biotin - SPR Kd; for kon: pH 7.5, read-out: ka. As to the method: Folate receptor SPR binding assays were conducted on a Biacore 8K instrument (Cytiva) using biotinylated folate receptor beta (Acro Biosystems). Briefly, folate receptor was immobilized at -550 RU on a streptavidin chip (Cytiva) in 10 mM HEPES pH 7.5, 150 mM NaCl, 0.05% Tween 20. Multi-cycle kinetic studies were conducted with 8 compound concentrations using 2-fold dilutions in 10 mM HEPES pH 7.5, 150 mM NaCl, 0.05% Tween 20, 2% DMSO at 25° C. A flow rate or 75 μl/mmn with an association time of 120 s and a dissociation time of 600 s were used. Surfaces were regenerated with 4 M MgCl2 at 30 μl/min for 30 s. Data were fit to a 1:1 model to determine the reported binding parameters.

For test [3], the target named is T1, folate receptor beta. As to the kind of experiment: Folate receptor binding assay (fluorescence polarization). The note with it: 2.5 nM folate receptor beta, 2 nM FR-Cy probe, 2 hr incubation; read-out: FOLR2-FP. On the procedure: Folate receptor binding was measured in black 96-well plates using a fluorescence polarization assay. A fluorescent probe consisting of a folate analog linked to Cy5 (FR-Cy) was custom synthesized.
Test compounds were resuspended in DMSO and 3-fold serial dilutions were made from 300-0.015 μM (100× final concentrations). Binding reactions were conducted in 200 μl final volume in 20 mM Hepes (pH 7.5) 250 mM NaCl 0.0150 Tween-20 1% DMSO with 2.5 nM folate receptor beta (Acro Biosystems) and 2 nM probe. Fluorescence polarization was measured using λex=620 nm, λem=688 nm on an Envision plate reader (Perkin Elmer) after 2 hr incubation time. Dose responses were conducted in duplicate and normalized to the response with DMSO (high) and 1 μM folic acid (low) on each plate. IC50 values were determined by fitting to 4-parameter curves in GraphPad Prism.
Background: In fluorescence polarisation assays a small probe gives low polarisation when free and higher when bound to something large.

A further test deals with TNFα (Homo sapiens (Human), UniProt P01375). Kind of test: TNFα binding assay (time-resolved FRET, biotinylated TNFα). The note with it: 1 nM biotinylated TNFα, 80 nM probe, 16 hr incubation; read-out: TNF-HTRF-biotin. On the procedure:
TNFα binding was measured in black 96-well plates using a time-resolved FRET assay using a previously described fluorescence acceptor TNFα probe (Xiao et al J. Med. Chem. 2020). Biotinylated TNFα was purchased from Acro Biosystems. Binding reactions were conducted in 20 mM Hepes (pH 7.5) 10 mM MgCl2 0.015% Tween-20 0.05 mg/ml BSA 2% DMSO with 1 nM TNFα 0.5 nM Streptavidin-Tb and 80 nM probe. Test compounds were resuspended in DMSO and 3-fold serial dilutions were made at 100× final concentrations. Fluorescence was measured using λex=340 nm, λem=490, 520 nm on an SpectraMax M5e plate reader (Molecular Devices) after 16 hr incubation time. Dose responses were conducted in duplicate and normalized to the response with DMSO (high) and 100 nM (R)-3-(1-((3-chloro-7-fluoro-6-(2-(2-hydroxypropan-2-yl)pyrimidin-5-yl)-2-methyl-1,5-naphthyridin-4-yl)amino)ethyl)-4-fluorobenzonitrile (low) on each plate. IC50 values were determined by fitting to 4-parameter curves in GraphPad Prism.

Results on six molecules are retold here after patent US20250127913A1, “BIFUNCTIONAL FOLATE RECEPTOR BINDING COMPOUNDS” (LYCIA THERAPEUTICS, INC., priority 2021, published 2025).

A word on the Kd: it is the concentration at which binding is half-saturated.

SMILES strings stand for the structures.

Sequence of TNFα (P01375 77-233): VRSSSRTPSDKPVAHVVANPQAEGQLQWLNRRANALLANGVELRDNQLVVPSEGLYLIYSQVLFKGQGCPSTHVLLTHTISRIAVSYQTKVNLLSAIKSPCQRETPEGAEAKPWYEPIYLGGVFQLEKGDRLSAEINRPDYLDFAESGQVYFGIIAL
T1 sequence (P14207 17-255): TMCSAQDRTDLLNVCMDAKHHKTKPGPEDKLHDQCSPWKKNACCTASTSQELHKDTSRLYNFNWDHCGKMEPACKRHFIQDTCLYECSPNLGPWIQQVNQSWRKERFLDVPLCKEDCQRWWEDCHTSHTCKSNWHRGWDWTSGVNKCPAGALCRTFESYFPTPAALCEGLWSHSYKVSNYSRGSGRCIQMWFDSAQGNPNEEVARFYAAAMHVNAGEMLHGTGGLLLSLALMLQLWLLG
Sequence of TNFα and streptavidin immobilized FOL2R (P14207 17-230): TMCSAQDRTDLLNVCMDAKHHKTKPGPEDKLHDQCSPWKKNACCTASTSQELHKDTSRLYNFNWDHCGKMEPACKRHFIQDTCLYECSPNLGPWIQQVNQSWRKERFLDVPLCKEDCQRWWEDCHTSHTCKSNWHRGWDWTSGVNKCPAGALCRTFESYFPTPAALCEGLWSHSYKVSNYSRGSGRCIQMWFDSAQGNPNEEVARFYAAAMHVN
Sequence of TNFα and streptavidin immobilized FOL2R (P01375 77-233): as the sequence (P01375 77-233) above

Take `Cc1nc2cc(F)c(-c3cnc(N4CCN(C(=O)COCCOCCOCCOCCOCCOCCn5cc(CC[C@H](NC(=O)c6ccc(N(C)Cc7cnc8nc(N)[nH]c(=O)c8n7)cc6)C(=O)O)nn5)CC4)nc3)nc2c(N[C@H](C)c2cc(C#N)ccc2F)c1Cl` [Compound I-86, (S)-2-(4-(((2-amino-4-oxo-3,4-dihydropteridin-6-yl)methyl)(methyl)amino)benzamido)-4-(1-(20-(4-(5-(7-chloro-8-(((R)-1-(5-cyano-2-fluorophenyl)ethyl)amino)-3-fluoro-6-methyl-1,5-naphthyridin-2-yl)pyrimidin-2-yl)piperazin-1-yl)-20-oxo-3,6,9,12,15,18-hexaoxaicosyl)-1H-1,2,3-triazol-4-yl)butanoic acid]: in test [1], the “TC 150 nM- tagless TNF Normalized” value was found to be 20.1% and the “TC 300 nM- tagless TNF Normalized” value worked out at 22.8%. For the same molecule, at folate receptor beta [2], the Rmax is given as 18.1 RU, the kd was 0.000344 s⁻¹, the equilibrium dissociation constant (Kd) came to 0.023 nM and the kon was determined as 1.53e+07 M⁻¹ s⁻¹. On folate receptor beta [3], the IC50 came out at 7.7 nM. For the same molecule, the IC50 at TNFα is 17 nM.
Consider `Cc1nc2cc(F)c(-c3cnc(N4CCN(C(=O)COCCOCCOCCOCCOCCn5cc(CC[C@H](NC(=O)c6ccc(NCc7cnc8nc(N)nc(O)c8n7)cc6)C(=O)O)nn5)CC4)nc3)nc2c(N[C@H](C)c2cc(C#N)ccc2F)c1Cl` [Compound I-89, (S)-2-(4-(((2-amino-4-hydroxypteridin-6-yl)methyl)amino)benzamido)-4-(1-(17-(4-(5-(7-chloro-8-(((R)-1-(5-cyano-2-fluorophenyl)ethyl)amino)-3-fluoro-6-methyl-1,5-naphthyridin-2-yl)pyrimidin-2-yl)piperazin-1-yl)-17-oxo-3,6,9,12,15-pentaoxaheptadecyl)-1H-1,2,3-triazol-4-yl)butanoic acid], for which the “TC 60 nM taggless TNF normalized” value in test [1] (60 nM untagged TNF) stood at 11.6%. In addition, the “TC 300 nM- tagless TNF Normalized” value in test [1] was found to be 15%. Further, at folate receptor beta [2], the Rmax was 31.1 RU, the kd is 0.000337 s⁻¹, the Kd turned out to be 0.223 nM and the kon was 1.51e+06 M⁻¹ s⁻¹. Besides, on folate receptor beta [3], the IC50 turned out to be 8.4 nM. On TNFα, the IC50 worked out at 42 nM.
In the case of `Cc1nc2cc(F)c(-c3cnc(N4CCN(C(=O)COCCn5cc(CCCN6CCC7(CC6)CCN(C(=O)CC[C@H](NC(=O)c6ccc(NCc8cnc9nc(N)nc(O)c9n8)cc6)C(=O)O)CC7)nn5)CC4)nc3)nc2c(N[C@H](C)c2cc(C#N)ccc2F)c1Cl` [Compound I-90, (S)-2-(4-(((2-amino-4-hydroxypteridin-6-yl)methyl)amino)benzamido)-5-(9-(3-(1-(2-(2-(4-(5-(7-chloro-8-(((R)-1-(5-cyano-2-fluorophenyl)ethyl)amino)-3-fluoro-6-methyl-1,5-naphthyridin-2-yl)pyrimidin-2-yl)piperazin-1-yl)-2-oxoethoxy)ethyl)-1H-1,2,3-triazol-4-yl)propyl)-3,9-diazaspiro[5.5]undecan-3-yl)-5-oxopentanoic acid], in test [1], the “TC 150 nM- tagless TNF Normalized” value was found to be 20.4% and the “TC 300 nM- tagless TNF Normalized” value was determined as 20.6%. Besides, on folate receptor beta [2], the Rmax came out at 13.3 RU, the kd came out at 0.00013 s⁻¹, the Kd was found to be 0.00496 nM and the kon is 2.62e+07 M⁻¹ s⁻¹. For the same molecule, the IC50 on folate receptor beta [3] amounted to 4.4 nM. Moreover, the IC50 at TNFα amounted to 7.6 nM.
Regarding `Cc1nc2cc(F)c(-c3cnc(N4CCN(C(=O)COCCn5cc(CN(CCO)CCOCCOCCOCCNC(=O)CC[C@H](NC(=O)c6ccc(NCc7cnc8nc(N)nc(O)c8n7)cc6)C(=O)O)nn5)CC4)nc3)nc2c(N[C@H](C)c2cc(C#N)ccc2F)c1Cl` [Compound I-93, (S)-19-(4-(((2-amino-4-hydroxypteridin-6-yl)methyl)amino)benzamido)-3-((1-(2-(2-(4-(5-(7-chloro-8-(((R)-1-(5-cyano-2-fluorophenyl)ethyl)amino)-3-fluoro-6-methyl-1,5-naphthyridin-2-yl)pyrimidin-2-yl)piperazin-1-yl)-2-oxoethoxy)ethyl)-1H-1,2,3-triazol-4-yl)methyl)-1-hydroxy-16-oxo-6,9,12-trioxa-3,15-diazaicosan-20-oic acid], in test [1], the “TC 150 nM- tagless TNF Normalized” value stood at 16.1% and the “TC 300 nM- tagless TNF Normalized” value came out at 18.2%. Moreover, at folate receptor beta [2], the Rmax is reported as 17.7 RU, the kd is 0.000178 s⁻¹, the dissociation constant Kd came out at 0.0109 nM and the kon came out at 1.63e+07 M⁻¹ s⁻¹. Moreover, the IC50 at folate receptor beta [3] was found to be 6.6 nM. The IC50 on TNFα came to 18 nM.
Take `Cc1nc2cc(F)c(-c3cnc(N4CCN(C(=O)COCCn5cc(CN(C)CCOCCOCCOCCNC(=O)CC[C@H](NC(=O)c6ccc(NCc7cnc8nc(N)nc(O)c8n7)cc6)C(=O)O)nn5)CC4)nc3)nc2c(N[C@H](C)c2cc(C#N)ccc2F)c1Cl` [Compound I-94, (S)-18-(4-(((2-amino-4-hydroxypteridin-6-yl)methyl)amino)benzamido)-1-(1-(2-(2-(4-(5-(7-chloro-8-(((R)-1-(5-cyano-2-fluorophenyl)ethyl)amino)-3-fluoro-6-methyl-1,5-naphthyridin-2-yl)pyrimidin-2-yl)piperazin-1-yl)-2-oxoethoxy)ethyl)-1H-1,2,3-triazol-4-yl)-2-methyl-15-oxo-5,811-trioxa-2,14-diazanonadecan-19-oic acid]: in test [1], the “TC 150 nM- tagless TNF Normalized” value was found to be 16.3% and the “TC 300 nM- tagless TNF Normalized” value is listed as 18.5%. Further, at folate receptor beta [2], the Rmax was 15.4 RU, the kd came out at 0.000169 s⁻¹, the Kd came to 0.0194 nM and the kon was 8.72e+06 M⁻¹ s⁻¹. Further, at folate receptor beta [3], the IC50 was determined as 9.3 nM. In addition, the IC50 on TNFα was 22 nM.
As for `Cc1nc2cc(F)c(-c3cnc(N4CCN(C(=O)COCCn5cc(COCCOCCOCCN6CCN(C(=O)CC[C@H](NC(=O)c7ccc(NCc8cnc9nc(N)nc(O)c9n8)cc7)C(=O)O)CC6)nn5)CC4)nc3)nc2c(N[C@H](C)c2cc(C#N)ccc2F)c1Cl` [Compound I-95, (S)-2-(4-(((2-amino-4-hydroxypteridin-6-yl)methyl)amino)benzamido)-5-(4-(2-(2-(2-((1-(2-(2-(4-(5-(7-chloro-8-(((R)-1-(5-cyano-2-fluorophenyl)ethyl)amino)-3-fluoro-6-methyl-1,5-naphthyridin-2-yl)pyrimidin-2-yl)piperazin-1-yl)-2-oxoethoxy)ethyl)-1H-1,2,3-triazol-4-yl)methoxy)ethoxy)ethoxy)ethyl)piperazin-1-yl)-5-oxopentanoic acid], in test [1], the “TC 150 nM- tagless TNF Normalized” value was found to be 17.3% and the “TC 300 nM- tagless TNF Normalized” value was found to be 18.6%. Also, on folate receptor beta [2], the Rmax came out at 14.8 RU, the kd was 0.000337 s⁻¹, the Kd turned out to be 0.0215 nM and the kon stood at 1.56e+07 M⁻¹ s⁻¹. Also, the IC50 at folate receptor beta [3] turned out to be 11 nM. At TNFα, the IC50 worked out at 26 nM.
